# pEC50, pIC50: −log10 of the molar value.
# Experiments:
# [1] = system: IP10 level in PBMCs stimulated with CpG Type A; test: PBMC IP-10 Assay; assay type: cell-based; details: PBMCs stimulated with CpG Type A 2.5 μM, overnight, IP10 AlphaLISA
# Method: PBMCs were isolated from whole blood as follows: Blood was collected in a sterile environment in heparinized tubes. Blood was diluted with an equal volume PBS/2% FCS and 30 ml of this mixture was added to ACCUSPIN tubes containing 15 ml Histopaque-1077 already centrifuged at 800 g for 30 seconds and warmed up at room temperature. The tubes were then centrifuged at 800 g for 20 minutes at room temperature with no brake. The mononuclear band, just above the polyethylene frit, was removed by Pasteur pipet. These mononuclear cells were washed three times with sterile PBS, counted, and resuspended in RPMI 1640 supplemented with 10% heat inactivated fetal calf serum, 10 mM HEPES, 1 mM sodium pyruvate, penicillin (50 U/ml), streptomycin (50 μg/ml) and glutamine (2 mM) to approximately 1.5×10^6/ml. Approximately 2×10^5 cells/well were plated in 96 well tissue culture plates (BD Falcon 353072), and preincubated 60 mi/37° C. with a titration of compounds, in a final concentration of 1% DMSO. Cells were then stimulated with CpG Type A (Invivogen, Cat # tlrl-2216; ODN 2216) at a final concentration of 2.5 μM. Cells were incubated overnight, and supernatants were removed. PBMC viability of cells remaining in the well was measured with ATPlite luminescence assay (Perkin-Elmer) per the manufacturer's instructions. Luminescence was measured on the Perkin-Elmer Envision, using the luminescence filter. IP10 level was measured with CXCL10/IP10 AlphaLISA kit (Perkin-Elmer) per the manufacturer's instructions, except halving all volumes. Fluorescence was measured on the Envision Multilabel plate reader, using the AlphaScreen standard settings.
# [2] = molecular target: T1, β 5i (chymotrypsin-like activity) (Homo sapiens, UniProt P20618+P28062); test: Cell-Based Proteasome Activity/Selectivity Assay (Ramos cells), substrate (ANW)2Rh110; details: β 5i substrate (ANW)2Rh110, highest concentration tested 20 μM, read-out: Ic50: ramos:ac-(anw)2-r110
# T1 construct: protease activity associated with the proteasome complex in cultured cells; endogenous in cells; host or cells: Ramos cells
# Excerpt: (§1) Cell-Based Proteasome Activity/Selectivity Assay
# (§2) The Cell-Based Proteasome subunit activity/selectivity assay was a panel of 5 fluorogenic assays that independently measured the activity of β5c or β 5i (chymotrypsin-like activity), β 2c/2i (trypsin-like), and β 1c or β 1i (caspase-like) protease activity associated with the proteasome complex in cultured cells. Specifically, the following substrates were used for respective subunit activities: β 1i: (PAL)2Rh110, β 1c: (LLE)2Rh110, β 2c/2i: (KQL)2Rh110, β 5c: (WLA)2Rh110, β 5i: (ANW)2Rh110. The following procedure was followed:
# (§3) Cell preparation: Plated 25 μl of Ramos cells (2×10^6/ml in DPBS) into half area plate (PerkinElmer Cat 6005569) to final 5×10^4 cells/well. Added 0.5 μl of 100× 4-fold serial diluted test compounds or DMSO to each well. Highest concentration of compound tested was 20 μM, thus compound serial dilution started from […]. Incubated for 30 minutes at 37° C. Then equilibrated at room temperature for 15 minutes. Added 25 μl of 2× reaction mix consisting of 0.025% digitonin, 20 μM of each substrates and 0.5M sucrose in DPBS. Shaked for one minute @ 700 rpm. Incubated for 120 min at room temperature. Then read the plates with an Envision multilabel plate reader (PerkinElmer) with 500 nm excitation/519 nm emission.
# [3] = molecular target: T2, β 1c (caspase-like) (Homo sapiens, UniProt P28072+Q99436); test: Cell-Based Proteasome Activity/Selectivity Assay (Ramos cells), substrate (LLE)2Rh110; details: β 1c substrate (LLE)2Rh110, highest concentration tested 20 μM
# T2 construct: protease activity associated with the proteasome complex in cultured cells; endogenous in cells; host or cells: Ramos cells
# Excerpt: as §1, §2, §3
# [4] = system: β 2c/2i (trypsin-like); test: Cell-Based Proteasome Activity/Selectivity Assay (Ramos cells), substrate (KQL)2Rh110; details: β 2c/2i substrate (KQL)2Rh110, highest concentration tested 20 μM
# Excerpt: as §1, §2, §3
# [5] = molecular target: T3, β 1i (caspase-like) (Homo sapiens, UniProt P28065+P40306); test: Cell-Based Proteasome Activity/Selectivity Assay (Ramos cells), substrate (PAL)2Rh110; details: β 1i substrate (PAL)2Rh110, highest concentration tested 20 μM
# T3 construct: protease activity associated with the proteasome complex in cultured cells; endogenous in cells; host or cells: Ramos cells
# Excerpt: as §1, §2, §3
# [6] = molecular target: T4, β5c (chymotrypsin-like activity) (Homo sapiens, UniProt P20618+P28074); test: Cell-Based Proteasome Activity/Selectivity Assay (Ramos cells), substrate (WLA)2Rh110; details: β 5c substrate (WLA)2Rh110, highest concentration tested 20 μM
# T4 construct: protease activity associated with the proteasome complex in cultured cells; endogenous in cells; host or cells: Ramos cells
# Excerpt: as §1, §2, §3
# [7] = system: MRL/lpr lupus-prone mice; details: cited from earlier work
# [8] = system: Th1/17 differentiation, B cell effector functions and production of inflammatory cytokines (IL-6, TNF-α, IL-23); details: cited from earlier work
# [9] = system: DSS-induced colitis model in mice; details: cited from earlier work
# [10] = system: mouse CAIA and CIA arthritis models; details: cited from earlier work
SMILES,pIC50 [2],pIC50 [3],pIC50 [4],pIC50 [5],pIC50 [6],pEC50 [1],disease progression [7],plasma cells numbers and levels of anti-dsDNA IgG [7],"block of Th1/17 differentiation, B cell effector functions and production of inflammatory cytokines [8]",inflammation and tissue destruction [9],disease score [10]
"COc1ccc(C(=O)NCCn2cc(C(=O)N[C@@H](Cc3ccccc3)B(O)O)nn2)c(OC)c1OC [Example 2, (R)-2-Phenyl-1-(1-(2-(2,3,4-trimethoxybenzamido)ethyl)-1H-1,2,3-triazole-4-carboxamido)ethylboronic acid]",8.15,5.18,4.87,7.60,7.80,7.47,–,–,–,–,–
"COc1cc(C(F)(F)F)ccc1C(=O)NCCn1cc(C(=O)N[C@@H](Cc2ccccc2)B(O)O)nn1 [Example 4, (R)-1-(1-(2-(2-Methoxy-4-(trifluoromethyl)benzamido)ethyl)-1H-1,2,3-triazole-4-carboxamido)-2-phenylethylboronic acid]",8.70,5.13,< 4.70,8.05,7.70,7.91,–,–,–,–,–
COc1ccc(C[C@H](NC(=O)[C@H](C)NC(=O)CN2CCOCC2)C(=O)N[C@@H](Cc2ccccc2)C(=O)[C@@]2(C)CO2)cc1 [PR-957],–,–,–,–,–,–,prevented disease progression,reduced plasma cells numbers and levels of anti-dsDNA IgG,potently block,reduced inflammation and tissue destruction,significantly decrease disease score

# Further molecules by rising pIC50 [2], results first:
pIC50 [2],pIC50 [3],pIC50 [4],pIC50 [5],pIC50 [6],SMILES,pEC50 [1],disease progression [7],plasma cells numbers and levels of anti-dsDNA IgG [7],"block of Th1/17 differentiation, B cell effector functions and production of inflammatory cytokines [8]",inflammation and tissue destruction [9],disease score [10]
8.70,6.49,< 4.70,8.40,7.41,"COc1ccc(C(=O)NCCn2cc(C(=O)N[C@@H](CC(C)C)B(O)O)nn2)c(OC)c1OC [Example 1, (R)-3-Methyl-1-(1-(2-(2,3,4-trimethoxybenzamido)ethyl)-1H-1,2,3-triazole-4-carboxamido)butylboronic acid]",7.53,–,–,–,–,–
8.70,5.13,< 4.70,8.00,8.22,"O=C(N[C@@H](Cc1ccccc1)B(O)O)c1cn(CCNC(=O)c2ccc(C(F)(F)F)cc2F)nn1 [Example 3, (R)-1-(1-(2-(2-Fluoro-4-(trifluoromethyl)benzamido)ethyl)-1H-1,2,3-triazole-4-carboxamido)-2-phenylethylboronic acid]",7.57,–,–,–,–,–
